Data reported in ChEMBL document CHEMBL4831516, “Development of Membrane-Active Honokiol/Magnolol Amphiphiles as Potent Antibacterial Agents against Methicillin-Resistant Staphylococcus aureus (MRSA)” (J Med Chem, 2021).
The source made the active and inactive calls. The rule behind the calls is not given here.

How the values were obtained:
Staphylococcus aureus [1] = assay: Antibacterial activity against methicillin-resistant Staphylococcus aureus clinical isolate M-20 assessed as inhibition of visible growth incubated for 16 to 18 hrs by CLSI method; type: functional; settings: time 16-18 hrs, read-out: MIC100
L02 = assay: Cytotoxicity against human L02 cells assessed as cell viability at 128 ug/ml incubated for 24 hrs by CCK8 assay; type: cell-based; settings: l02, 24 h, dose 128 µg/ml
Staphylococcus aureus [2] = assay: Antibacterial activity against methicillin-resistant Staphylococcus aureus clinical isolate M-14 assessed as inhibition of visible growth incubated for 16 to 18 hrs by CLSI method; type: functional; settings: time 16-18 hrs, read-out: MIC100
Cell membrane [3] = assay: Induction of membrane disruption in methicillin-resistant Staphylococcus aureus clinical isolate 16 assessed as increase in red fluorescence at 10 ug/ml by PI staining based confocal laser scanning microscopy; settings: dose 10.0 µg/ml
Staphylococcus aureus [4] = assay: Antibacterial activity against methicillin-resistant Staphylococcus aureus clinical isolate M-17 assessed as inhibition of visible growth incubated for 16 to 18 hrs by CLSI method; type: functional; settings: time 16-18 hrs, read-out: MIC100
[5] = Toxicity in BALB/c mouse assessed as abnormalities and pathological changes in spleen at 25 mg/kg, sc once a day for 3 days by H and E staining based assay; type: organism-based; settings: in vivo, 72 h, time 3 day
Staphylococcus aureus [6] = assay: Antibiofilm activity against Staphylococcus aureus assessed as destruction of biofilm at 64 ug/ml incubated for 16 to 18 hrs by crystal violet based biofilm disruption assay relative to control; type: functional; settings: dose 64 µg/ml; time 16-18 hrs
Staphylococcus aureus [7] = assay: Antibacterial activity against […] at sublethal concentration treated over 20 serial passages by resistance development assay; type: functional, organism-based
Staphylococcus aureus [8] = assay: Antibacterial activity against methicillin-resistant Staphylococcus aureus clinical isolate 16 infected in BALB/c mouse assessed as reduction in inflammatory cell inflammation in spleen at 25 mg/kg, sc once a day for 3 days by H and E staining based assay; type: functional, organism-based; settings: time 3.0 day
Cell membrane [9] = assay: Induction of membrane morphological changes in methicillin-resistant Staphylococcus aureus clinical isolate 16 assessed as visible cell surface wrinkles and disruption at 10 ug/ml by scanning electron microscopy; type: subcellular; settings: dose 10.0 µg/ml
Staphylococcus aureus [10] = assay: Antibacterial activity against Staphylococcus aureus ATCC29213 assessed as inhibition of visible growth incubated for 16 to 18 hrs by CLSI method; type: functional; settings: time 16-18 hrs, read-out: MIC100

C=CCc1ccc(OCCC[N+](C)(C)CC(=O)NCCCC)c(-c2ccc(OCCC[N+](C)(C)CC(=O)NCCCC)c(CC=C)c2)c1.[Br-].[Br-]
MIC (Staphylococcus aureus [1]): 3 µg/mL | Activity (L02): Non-Toxic | MIC (Staphylococcus aureus [2]): 1 µg/mL | Activity (Cell membrane [3]): Active | MIC (Staphylococcus aureus [4]): 0.5 µg/mL | Activity [5]: Non-Toxic | Activity (Staphylococcus aureus [6]): 20% | Activity (Staphylococcus aureus [7]): Active | Activity (Staphylococcus aureus [8]): Active | Activity (Cell membrane [9]): Active | MIC (Staphylococcus aureus [10]): 1 µg/mL
